The numbers were not newly measured in patent US8853187B2, “Composition comprising bisphosphonates for prevention and/or treatment of metabolic diseases of bones, process for preparing such composition and use thereof” (Gador S.A., priority 2001, dated 2014), which cites them from elsewhere.

SMILES strings stand for the structures.

For the data set the following is noted: ranking within the group of bisphosphonates, in words.

For the compound `CN(C)CCC(O)(P(=O)(O)O)P(=O)(O)O` [Olpadronate], the “solubility relative to other bisphosphonates” value is reported as “most soluble”.
